The experiment deals with T1, GSK3β (Homo sapiens, UniProt P49841).
T1 construct: purchased Upstate 14-306
Put plainly: In vitro biochemical GSK3β inhibition assay (coupled pyruvate kinase/lactate dehydrogenase, NADH fluorescence). To be noted: 5 nM GSK3β, 40 μM GSK3β substrate GSM, 50 μM ATP, 30° C. for 2 hours. The method, then: The inhibitory activity of active substances is determined in a biochemical assay. The ingredients required for this purpose are mixed in a black 384-well microtitre plate with transparent base (from Greiner, catalogue number 781092). The requirements in this connection for each well of the 384-well microtitre plate are 5 nM GSK3β (from Upstate, catalogue number 14-306), 40 μM GSK3β substrate GSM (sequence H-RRRPASVPPSPSLSRHS-(pS)-HQRR, from Upstate, catalogue number 2-533), 30 μM nicotinamide adenine dinucleotide NADH (Roche Diagnostics, catalogue number 10107735), 50 μM adenosine triphosphate ATP (from Sigma, catalogue number A7966), 2 mM phosphoenolpyruvate (from Roche, catalogue number 128112), and also about 1 U/ml of pyruvate kinase and about 1 U/ml of lactate dehydrogenase, which are present together in a stock formulation (from Roche, catalogue number 10737291001, suspension with about 450 U/ml of pyruvate kinase activity, about 450 U/ml of lactate dehydrogenase activity in […] ammonium sulphate solution pH 6), where 1 unit pyruvate kinase converts, at pH 7.6 and 37° C., 1 μmol of phosphoenolpyruvate into pyruvate per minute, and where 1 unit of lactate dehydrogenase reduces, at pH 7.5 and 37° C., 1 μmol of pyruvate to lactate per minute. The required reaction buffer in which the biochemical reaction takes place consists of 50 mM Trizma hydrochloride Tris-HCl pH: 7.5 (from Sigma, catalogue number T3253), 5 mM magnesium chloride MgCl2 (from Sigma, catalogue number M8266), 0.2 mM DL-dithiothreitol DTT (from Sigma, catalogue number D9779), 2 mM ethylenediaminetetraacetic acid EDTA (from Sigma, catalogue number E6758), 0.01% Triton X-100 (from Sigma, catalogue number T8787) and 0.05% bovine serum albumin BSA (from Sigma, catalogue number B4287).
Active substances are dissolved in dimethyl sulfoxide DMSO (from Sigma, catalog number D8418) in a concentration of 10 mM. Active substances are added in serial concentrations of 10 μM, 1 μM, 0.1 μM, 0.01 μM, 0.001 μM, 0.0001 μM, 0.00001 μM, 0.000001 μM to the mixtures of the biochemical reaction. As control, dimethyl sulfoxide is added instead of substance in a final concentration of 0.1%.
The reaction is incubated at 30° C. for 2 hours and then the resulting fluorescence is measured in a Tecan Safire-XFLUOR4 instrument, version V4.50 (serial number 12901300283) with the specifications: measurement mode—fluorescence measured from below, extinction wavelength 340 nm, emission wavelength 465 nm, slit width extinction 5 nm, slit width emission 5 nm, gain mode 120, delay 0 μs, number of light flashes per measurement 3, and an integration time of 40 μs.
The activity of the active substances is calculated in relation to these 0% and 100%.

T1 sequence (P49841 whole entry): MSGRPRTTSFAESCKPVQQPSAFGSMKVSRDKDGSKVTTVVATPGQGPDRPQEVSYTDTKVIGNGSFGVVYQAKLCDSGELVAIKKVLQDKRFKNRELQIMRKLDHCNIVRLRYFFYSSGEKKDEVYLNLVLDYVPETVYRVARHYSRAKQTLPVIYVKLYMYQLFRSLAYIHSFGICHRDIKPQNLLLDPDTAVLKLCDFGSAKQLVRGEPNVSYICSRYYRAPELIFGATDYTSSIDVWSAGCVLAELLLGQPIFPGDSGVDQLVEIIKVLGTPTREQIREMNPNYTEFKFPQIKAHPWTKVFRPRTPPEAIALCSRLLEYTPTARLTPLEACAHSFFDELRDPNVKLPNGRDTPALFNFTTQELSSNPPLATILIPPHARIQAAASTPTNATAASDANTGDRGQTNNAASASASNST

One may read the IC50 as the concentration that gives 50% inhibition. Read a high IC50 as weaker potency. `Nc1nc(NCCNc2nc(-c3ccc(Cl)cc3Cl)cc3nc(C4CCN(CC5CC5)CC4)nn23)ccc1C(=O)C(F)(F)F` [Example 21, 1-(2-Amino-6-{[2-({2-[1-(cyclopropylmethyl)piperidin-4-yl]-7-(2,4-dichlorophenyl)-[1,2,4]triazolo[1,5-c]pyrimidin-5-yl}amino)ethyl]amino}pyridin-3-yl)-2,2,2-trifluoroethanone] showed a half-inhibitory concentration (IC50) of 20 nM.

`Nc1nc(NCCNc2nc(-c3ccc(Cl)cc3Cl)cc3nc(C4CCN(CC(=O)O)CC4)nn23)ccc1C(=O)C(F)(F)F` [Example 23, (4-{5-[(2-{[6-Amino-5-(trifluoroacetyl)pyridin-2-yl]amino}ethyl)amino]-7-(2,4-dichlorophenyl)-[1,2,4]triazolo[1,5-c]pyrimidin-2-yl}piperidin-1-yl)acetic acid] showed a concentration for half-maximal inhibition (IC50) of 9 nM.

As for `CC(C)N1CCC(c2nc3cc(-c4ccc(F)cc4Cl)nc(N4CCCC(Nc5ccc(C(=O)C(F)(F)F)c(N)n5)C4)n3n2)CC1` (racemic) [Example Ent-A-13, 1-{2-Amino-6-[(1-{7-(2-chloro-4-fluorophenyl)-2-[1-(propan-2-yl)piperidin-4-yl][1,2,4]-triazolo[1,5-c]pyrimidin-5-yl}piperidin-3-yl)amino]pyridin-3-yl}-2,2,2-trifluoroethanone], half-maximal inhibition (IC50) was put at 2 nM.

On to `CC(C)N1CCC(c2nc3cc(-c4ccc(F)cc4Cl)nc(N4CCCC(Nc5ccc(C(=O)C(F)(F)F)c(N)n5)C4)n3n2)CC1` (racemic) [Example 13, 1-{2-Amino-6-[(1-{7-(2-chloro-4-fluorophenyl)-2-[1-(propan-2-yl)piperidin-4-yl][1,2,4]-triazolo[1,5-c]pyrimidin-5-yl}piperidin-3-yl)amino]pyridin-3-yl}-2,2,2-trifluoroethanone], for which it took 4 nM to reach half-maximal inhibition (IC50).

The compound `CC(C)N1CCC(c2nc3cc(-c4ccc(Cl)cc4Cl)nc(NCCNc4ccc(C(=O)C(F)(F)F)c(N)n4)n3n2)CC1` [Example 1, 1-(2-Amino-6-{[2-({7-(2,4-dichlorophenyl)-2-[1-(propan-2-yl)piperidin-4-yl][1,2,4]triazolo[1,5-c]-pyrimidin-5-yl}amino)ethyl]amino}pyridin-3-yl)-2,2,2-trifluoroethanone] yielded an IC50 of 15 nM.

The compound `CC(C)N1CCC(c2nc3cc(-c4ccc(Cl)cc4Cl)nc(N4CCCC(Nc5ccc(C(=O)C(F)(F)F)c(N)n5)C4)n3n2)CC1` (stereo not drawn) [Example 5, 1-{2-Amino-6-[(1-{7-(2,4-dichlorophenyl)-2-[1-(propan-2-yl)piperidin-4-yl][1,2,4]triazolo[1,5-c]-pyrimidin-5-yl}piperidin-3-yl)amino]pyridin-3-yl}-2,2,2-trifluoroethanone] came in with an IC50 of 10 nM.

Values taken from patent US8436003B2, “Substituted imidazo- and triazolopyrimidines, imidazo- and pyrazolopyrazines and imidazotriazines” (Bayer Intellectual Property GmbH, priority 2008, dated 2013).
